Data as given in BindingDB's records for doi:10.1021/jm00062a011 (Smithkline Beecham Pharmaceuticals, 1993).
Structures can show the parent of a compound that is named as a salt.

These compounds were tested against cGMP-specific 3',5'-cyclic phosphodiesterase PDE5 (Sus scrofa) (assay: In vitro inhibition of PDE-V isolated from porcine pulmonary artery.).

Row | Structure (SMILES) | IC50
1 | OCCCOc1ccccc1-c1nc2ncccc2[nH]1 [3-[2-(3H-Imidazo[4,5-b]pyridin-2-yl)-phenoxy]-propan-1-ol] | 24 µM
2 | c1ccc(COc2ccccc2-c2nc3ncccc3[nH]2)cc1 [2-(2-Benzyloxy-phenyl)-3H-imidazo[4,5-b]pyridine] | 4 µM
3 | CCCOc1ccccc1-c1cn2cccnc2n1 [2-(2-Propoxy-phenyl)-imidazo[1,2-a]pyrimidine] | 33 µM
4 | Oc1ccccc1-c1nc2ncccc2[nH]1 [2-(3H-Imidazo[4,5-b]pyridin-2-yl)-phenol] | 37 µM
5 | COc1ccccc1-c1nc2ccncc2[nH]1 [2-(2-Methoxy-phenyl)-3H-imidazo[4,5-c]pyridine; hydrochloride] | 42 µM
6 | c1ccc(-c2nc3ncccc3[nH]2)c(OCC2CC2)c1 [2-(2-Cyclopropylmethoxy-phenyl)-3H-imidazo[4,5-b]pyridine] | 6 µM
7 | CCCCCOc1ccccc1-c1nc2ccncc2[nH]1 [2-(2-Pentyloxy-phenyl)-3H-imidazo[4,5-c]pyridine; hydrochloride] | 1 µM
8 | CCCCCOc1ccccc1-c1nc2ncccc2[nH]1 [2-(2-Pentyloxy-phenyl)-3H-imidazo[4,5-b]pyridine] | 1 µM
9 | COc1cc([S+](C)[O-])ccc1-c1nc2cnccc2[nH]1 (stereo unspecified) [2-(4-Methanesulfinyl-2-methoxy-phenyl)-1H-imidazo[4,5-c]pyridine(isomazole)] | 58 µM
10 | CCCCOc1ccccc1-c1nc2ncccc2[nH]1 [2-(2-Butoxy-phenyl)-3H-imidazo[4,5-b]pyridine] | 1 µM
11 | CCOc1ccccc1-c1nc2ncccc2[nH]1 [2-(2-Ethoxy-phenyl)-3H-imidazo[4,5-b]pyridine] | 18 µM
12 | CCCNc1ccccc1-c1nc2ncccc2[nH]1 [[2-(3H-Imidazo[4,5-b]pyridin-2-yl)-phenyl]-propyl-amine] | 26 µM
13 | ClCCCOc1ccccc1-c1nc2ncccc2[nH]1 [2-[2-(3-Chloro-propoxy)-phenyl]-3H-imidazo[4,5-b]pyridine] | 2 µM
14 | CCCCCCOc1ccccc1-c1nc2ncccc2[nH]1 [2-(2-Hexyloxy-phenyl)-3H-imidazo[4,5-b]pyridine] | 4 µM
15 | c1ccc(-c2nc3ncccc3[nH]2)c(OC2CCCC2)c1 [2-(2-Cyclopentyloxy-phenyl)-3H-imidazo[4,5-b]pyridine] | 15 µM
16 | CCCSc1ccccc1-c1nc2ncccc2[nH]1 [2-(2-Propylsulfanyl-phenyl)-3H-imidazo[4,5-b]pyridine] | 24 µM
